The source of these data is ChEMBL document CHEMBL1201862, “PubChem BioAssay data set” (2004).

Molecules are shown by their SMILES.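 Test compounds were applied to cells in 96-well plates for 48 hours at 5 doses. GI50 = concentration required for 50% inhibition of growth.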 Calls of active or inactive are those of the source. Rule as the data show it: active = GI50 up to about 1.1 µM and inactive = higher.

Some test systems named below: M14; A549; OVCAR-3; 786-0; SW-620; SF-268; LOX IMVI; MDA-N; HCC 2998; MDA-MB-231; IGROV-1; RXF 393; SK-MEL-28; Malme-3M; CAKI-1; NCI-H226; SK-MEL-2; KM12; HOP-92; SR.
Common to all, as to test: DTP human tumour cell line panel, 48 h

By GI50 is commonly meant the concentration giving 50% growth inhibition. Consider `O=C1CCCC(=O)N1n1c(Cc2ccc(Cl)cc2)n[nH]c1=O`, for which the GI50 in the test with M14, in the test with A549, with OVCAR-3, in the test with 786-0, in the test with SW-620 and in the test on SF-268 was > 100 µM (inactive) throughout. The GI50 in the test with LOX IMVI, with MDA-N, with HCC 2998, in the test with MDA-MB-231, with IGROV-1 and with RXF 393 was > 100 µM (inactive) in each case. Also, the GI50 with SK-MEL-28, with Malme-3M, with CAKI-1, with NCI-H226, with SK-MEL-2 and with KM12 was > 100 µM (inactive) each time.
As for `C1CC2CN(CCCN3CCOCC3)C(C1)O2` (stereo not drawn), the GI50 with M14, with A549, with OVCAR-3, with HOP-92, with 786-0 and in the test on SW-620 was > 100 µM (inactive) throughout. For the same molecule, the GI50 in the test with SF-268, in the test on LOX IMVI, in the test with MDA-N, in the test on MDA-MB-231, with IGROV-1 and with RXF 393 was > 100 µM (inactive) throughout. The GI50 with SK-MEL-28, in the test on Malme-3M, with CAKI-1, in the test on NCI-H226, in the test on SK-MEL-2 and in the test on KM12 was > 100 µM (inactive) throughout.
For `N=c1c2c(-c3ccccc3)c[nH]c2ncn1N`, the GI50 with M14, in the test with A549, in the test with OVCAR-3, in the test with HOP-92, in the test on 786-0 and in the test with SW-620 was > 100 µM (inactive) each time. For the same molecule, the GI50 with LOX IMVI, in the test on MDA-N, in the test on HCC 2998, in the test with MDA-MB-231, in the test with IGROV-1 and in the test with SK-MEL-28 was > 100 µM (inactive) throughout. In addition, the GI50 with CAKI-1, in the test with NCI-H226, with SK-MEL-2 and in the test with KM12 was > 100 µM (inactive) in each case.
On to `O=C1C=CC(=O)c2c1c1c(c3c2C2c4ccccc4C3c3ccccc32)C2c3ccccc3C1c1ccccc12`, for which the GI50 with M14 was 1.7 µM (inactive); in the test on A549, 8.69 µM (inactive); with OVCAR-3 it was 1.77 µM (inactive); in the test with HOP-92, 1.08 µM (active); with 786-0, 1.45 µM (inactive); with SW-620, 0.914 µM (active). The GI50 was 7.64 µM (inactive) with SF-268; 1.64 µM (inactive) in the test with LOX IMVI; 1.55 µM (inactive) in the test with MDA-N; 6.92 µM (inactive) in the test on HCC 2998; 1.95 µM (inactive) with SR; 7.06 µM (inactive) in the test on IGROV-1. In addition, the GI50 in the test on RXF 393 is 1.59 µM (inactive); in the test with SK-MEL-28, 1.42 µM (inactive); in the test on Malme-3M it was 1.6 µM (inactive); in the test with CAKI-1 it was 1.73 µM (inactive); in the test on NCI-H226, 4.71 µM (inactive); in the test with SK-MEL-2, 1.89 µM (inactive). For the same molecule, in the test on KM12, the GI50 is 12.7 µM (inactive).
Take `CN(C)c1ccc(/N=N/c2ccc3[nH]cnc3c2)cc1`: the GI50 with M14 was 21.4 µM (inactive); in the test on A549, 29.7 µM (inactive); with 786-0 it was 18.2 µM (inactive); with SW-620, 29.6 µM (inactive); in the test on SF-268, 20.6 µM (inactive); in the test on MDA-N, 26.9 µM (inactive). Besides, the GI50 with SR was 25.1 µM (inactive); in the test on MDA-MB-231 it was 15.1 µM (inactive); in the test with IGROV-1 it was 34.5 µM (inactive); with RXF 393 it was 27.1 µM (inactive); in the test with SK-MEL-28 it was 11.5 µM (inactive); in the test on Malme-3M, 25.2 µM (inactive). The GI50 is 42.2 µM (inactive) in the test on CAKI-1, 34 µM (inactive) with NCI-H226, 58.7 µM (inactive) in the test on SK-MEL-2 and 29.2 µM (inactive) with KM12.
Consider `O=C(OCc1ccc([N+](=O)[O-])cc1)N1c2ccccc2[C@@]23O[C@]24CCC[C@H]3C#C/C=C\C#C[C@H]14`, for which the GI50 is > 100 µM (inactive) in the test on M14; 8.77 µM (inactive) in the test with A549; > 100 µM (inactive) in the test on OVCAR-3; > 100 µM (inactive) in the test with HOP-92; > 100 µM (inactive) in the test on 786-0; 72.9 µM (inactive) with SW-620. For the same molecule, the GI50 in the test with SF-268 was 38.6 µM (inactive); in the test on LOX IMVI, 56.5 µM (inactive); with MDA-N, > 100 µM (inactive); in the test with HCC 2998, > 100 µM (inactive); in the test with MDA-MB-231 it was > 100 µM (inactive); in the test on IGROV-1, > 100 µM (inactive). The GI50 was > 100 µM (inactive) with RXF 393; > 100 µM (inactive) in the test on SK-MEL-28; 19.6 µM (inactive) in the test on Malme-3M; 37.4 µM (inactive) in the test on CAKI-1; > 100 µM (inactive) in the test on NCI-H226; > 100 µM (inactive) with SK-MEL-2. Also, the GI50 with KM12 is > 100 µM (inactive).
For the molecule `COC(=O)c1ccc(NCc2cc(O)ccc2O)cc1`, the GI50 was 18 µM (inactive) in the test with M14; 14.5 µM (inactive) with A549; 10.9 µM (inactive) with OVCAR-3; 13.3 µM (inactive) in the test with HOP-92; 9.4 µM (inactive) in the test on 786-0; 9.18 µM (inactive) with SW-620. The GI50 in the test with SF-268 is 11.2 µM (inactive); in the test on LOX IMVI, 10.2 µM (inactive); with MDA-N, 5.31 µM (inactive); with HCC 2998, 14.4 µM (inactive); with SR, 1.58 µM (inactive); in the test on IGROV-1, 9.89 µM (inactive). In addition, the GI50 in the test with RXF 393 is 6.73 µM (inactive); with SK-MEL-28, 18.9 µM (inactive); in the test with Malme-3M, 6.71 µM (inactive); in the test with CAKI-1, 21.3 µM (inactive); in the test on NCI-H226 it was 8.38 µM (inactive); with SK-MEL-2, 16 µM (inactive). Moreover, the GI50 with KM12 was 12.4 µM (inactive).
As for `CCN1CSC(=S)N(CC)C1`, the GI50 in the test on M14 was 50.6 µM (inactive); with A549, > 100 µM (inactive); with OVCAR-3, 37.8 µM (inactive); in the test with HOP-92 it was > 100 µM (inactive); in the test on 786-0 it was 28.6 µM (inactive); with SW-620, 36.6 µM (inactive). The GI50 is > 100 µM (inactive) in the test with SF-268; 79.8 µM (inactive) in the test with MDA-N; > 100 µM (inactive) with HCC 2998; 19.5 µM (inactive) in the test with MDA-MB-231; 75.3 µM (inactive) in the test with IGROV-1; > 100 µM (inactive) with RXF 393. Also, the GI50 in the test on SK-MEL-28 is > 100 µM (inactive); in the test on Malme-3M, 52.7 µM (inactive); with NCI-H226, > 100 µM (inactive); in the test with SK-MEL-2 it was > 100 µM (inactive); in the test on KM12, 98.2 µM (inactive).
Take `O=C(Cc1ccccc1)NN1C(=O)/C(=C\c2ccccc2)S/C1=N\c1ccccc1`: the GI50 in the test on M14, with A549, in the test on OVCAR-3, in the test with HOP-92, in the test on 786-0 and with SW-620 was > 100 µM (inactive) in each case. Also, the GI50 in the test with SF-268, in the test on MDA-N, in the test with HCC 2998, with MDA-MB-231, in the test on IGROV-1 and in the test on RXF 393 was > 100 µM (inactive) in each case. In addition, the GI50 in the test with SK-MEL-28, in the test on NCI-H226, with SK-MEL-2 and with KM12 was > 100 µM (inactive) throughout.
As for `COc1ccc(-n2cnc3c(N)nc(N)nc32)cc1`, the GI50 with M14 is > 100 µM (inactive); in the test with A549 it was 93.3 µM (inactive); in the test on OVCAR-3, > 100 µM (inactive); with HOP-92, > 100 µM (inactive); in the test on 786-0, > 100 µM (inactive); in the test on SW-620 it was > 100 µM (inactive). The GI50 with SF-268 is > 100 µM (inactive); in the test with MDA-N, > 100 µM (inactive); with HCC 2998 it was 64.4 µM (inactive); in the test with MDA-MB-231 it was 57.8 µM (inactive); in the test on IGROV-1 it was 56.9 µM (inactive); with RXF 393, 43.2 µM (inactive). Moreover, the GI50 was > 100 µM (inactive) in the test on SK-MEL-28; > 100 µM (inactive) in the test with Malme-3M; 76.7 µM (inactive) in the test on CAKI-1; > 100 µM (inactive) in the test with NCI-H226; 54.2 µM (inactive) with SK-MEL-2; 29.1 µM (inactive) with KM12.
Take `O=c1c2cc(S(=O)(=O)O)ccc2nc(COc2ccc(Oc3ccc(Cl)cc3Cl)cc2)n1-c1ccc(Oc2ccc(Cl)cc2)cc1Cl`: the GI50 in the test with M14 is 19.4 µM (inactive); in the test on A549, 19.3 µM (inactive); with OVCAR-3 it was 18.3 µM (inactive); in the test with HOP-92, 12.8 µM (inactive); in the test with 786-0, 20 µM (inactive); in the test with SW-620 it was 21.5 µM (inactive). Also, the GI50 is 12.7 µM (inactive) in the test with SF-268; 16.4 µM (inactive) in the test on LOX IMVI; 23.7 µM (inactive) in the test on MDA-N; 15.2 µM (inactive) in the test on SR; 23.1 µM (inactive) in the test with IGROV-1; 0.0752 µM (active) in the test on RXF 393. Besides, the GI50 in the test on Malme-3M was 28.1 µM (inactive); in the test on CAKI-1, 30.8 µM (inactive); in the test with NCI-H226 it was 19.5 µM (inactive); in the test on SK-MEL-2, 16.5 µM (inactive); in the test on KM12, 28.5 µM (inactive).
